According to the NIST ThermoML archive (doi:10.1021/acs.jced.7b01091):

Details: Liquid; for vapor or sublimation pressure: Closed cell (Static) method; for mass density: 101.33 kPa, Vibrating tube method

ClCCCl [1,2-dichloroethane]
Details | mass density [kg/m3] | vapor or sublimation pressure [kPa]
284.87 K | – | 5.38
294.83 K | – | 8.97
294.84 K | – | 8.96
298.15 K | 1245.68 | 10.53
304.82 K | – | 14.34
314.81 K | – | 22.19
314.83 K | – | 22.18
324.83 K | – | 33.27
334.82 K | – | 48.47
344.81 K | – | 67.97
354.89 K | – | 94.96

C1COCO1 [1,3-dioxolane]
Details | mass density [kg/m3] | vapor or sublimation pressure [kPa]
275 K | – | 3.86
284.94 K | – | 6.74
294.82 K | – | 11.33
298.15 K | 1058.76 | 13.31
304.79 K | – | 18.26
314.76 K | – | 28.28
324.9 K | – | 43.07
334.85 K | – | 62.99
344.82 K | – | 89.85
350.77 K | – | 109.39

C1COCCO1 [1,4-dioxane]
Details | mass density [kg/m3] | vapor or sublimation pressure [kPa]
284.59 K | – | 2.23
294.82 K | – | 3.92
298.15 K | 1027.87 | 4.68
304.81 K | – | 6.58
314.76 K | – | 10.54
324.92 K | – | 16.71
334.92 K | – | 25.52
344.89 K | – | 37.55
354.92 K | – | 54.11

C1CCOCC1 [tetrahydropyran]
Details | mass density [kg/m3] | vapor or sublimation pressure [kPa]
275.59 K | – | 2.85
285.53 K | – | 4.91
295.42 K | – | 8.07
298.15 K | 879.16 | 9.25
305.37 K | – | 12.85
315.36 K | – | 19.9
325.65 K | – | 29.99
335.6 K | – | 43.81
345.59 K | – | 61.17
355.49 K | – | 84.29
